Paper PMC5371667, “Targeting Bile Acid Receptors: Discovery of a Potent and Selective Farnesoid X Receptor Agonist as a New Lead in the Pharmacological Approach to Liver Diseases” (Frontiers in Pharmacology, 2017)

Assays:
PPARα = molecular target: T1, PPARα (Homo sapiens, UniProt Q07869); test: PPARα transactivation on HepG2 cells (GAL4 LBD reporter); assay type: cell-based; conditions: 10 μM
T1 construct: expressed in transfected cells; host or cells: HepG2
T1 sequence (Q07869 239-466 limits assumed): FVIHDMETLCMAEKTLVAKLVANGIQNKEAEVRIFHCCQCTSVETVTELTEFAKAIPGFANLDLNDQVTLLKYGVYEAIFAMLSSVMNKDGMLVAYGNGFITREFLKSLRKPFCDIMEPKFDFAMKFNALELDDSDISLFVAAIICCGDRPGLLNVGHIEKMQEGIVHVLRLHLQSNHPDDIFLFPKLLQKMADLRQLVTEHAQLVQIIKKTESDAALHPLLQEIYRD
Method: (§1) To evaluate LXRα and LXRβ mediated transactivation, HepG2 cells were transfected with 200 ng of the reporter vector p(UAS)5XTKLuc, 100 ng of a vector containing the ligand binding domain of LXRα or LXRβ cloned upstream of the GAL4-DNA binding domain (i.e., pSG5-LXRαLBD-GAL4DBD or pSG5-LXRβLBD-GAL4DBD) and 100 of pGL4.70 Renilla. At 24 h post-transfection, cells were stimulated 18 h with 10 μM compound 2 and GW3965 (GW, 10 μM) was used as positive control. To investigate the PPARα and PPARγ mediated transactivation, HepG2 cells were transiently transfected with 200 ng reporter vector p(UAS)9XTKLuc, 100 ng of a vector containing the ligand binding domain of PPARα or PPARγ cloned upstream of the GAL4-DNA binding domain (i.e., pSG5- PPARαLBD-GAL4DBD or pSG5- PPARγLBD-GAL4DBD) and 100 of pGL4.70 Renilla. For PPARα transactivation, cells were stimulated with 10 μM compound 2 and gemfibrozil (GEM, 10 μM) was used as positive control. For PPARγ transactivation, cells were stimulated with 10 μM compound 2 and rosiglitazone (ROSI, 100 nM) was used as a positive control. Luciferase activities were assayed and normalized with Renilla activities.

[1] = system: bile acid pool in plasma and gallbladder; test: Bile acid pool in C57BL6 mice (LC-MS/MS)
Method: At the day of sacrifice livers, gallbladders, blood and feces were collected from mice for further analysis.
The stock solutions of the individual tauro-conjugated and un-conjugated BAs were prepared separately in methanol at a concentration of 1 mg/mL. All stock solutions were stored at –20°C. Calibration standards were prepared by combining appropriate volumes of each BA stock solution and methanol. […] Mice serum sample aliquots of 20 μL were mixed with 80 μL of CH3OH, shaken continuously, vortexed and, after centrifugation at 16000 g for 10 min, the clear supernatant was transferred to a new vial, snap frozen and lyophilized. The sample was then re-dissolved in 40% water/ 60% MeOH with 0.1% formic acid and ammonium acetate 5 mM. […] For gallbladder, 10 mg of lyophilized gallbladder were manually pestle using a mortar and dissolved in 1 mL CH3OH. After centrifugation at 16000 g for 10 min, 500 μL of supernatants were lyophilized and reconstituted in 100 μL of 40% water/60% MeOH with 0.1% formic acid and ammonium acetate 5 mM.
For LC-MS/MS analysis, chromatographic separation was carried out on the HPLC-MS system Q-TRAP 6500 LC-MS/MS System from AB Sciex equipped with Shimadzu LC-20A LC and AutoSampler system. The mixture was separated on a Synergi Fusion RP 4 m from Phenomenex (150 mm × 2.00 mm).
Tauro-conjugated and non-conjugated BAs were separated at a flow rate of 200 μL/min using a methanol–aqueous ammonium acetate (NH4OAc) gradient. Mobile phase A was water containing 5 mM ammonium acetate and 0.1% formic acid, mobile phase B was methanol, containing ammonium acetate at 5 mM and 0.1% formic acid. […] ESI was performed in negative ion mode and the ion source temperature was set at 280°C. The tune page parameters were automatically optimized injecting taurocholic acid at 1 μM as standard.

LXRα = molecular target: T2, LXRα (Homo sapiens, UniProt Q13133); test: LXRα transactivation on HepG2 cells (GAL4 LBD reporter); assay type: cell-based; conditions: 10 μM
T2 construct: expressed in transfected cells; host or cells: HepG2
T2 sequence (Q13133 209-447 limits assumed): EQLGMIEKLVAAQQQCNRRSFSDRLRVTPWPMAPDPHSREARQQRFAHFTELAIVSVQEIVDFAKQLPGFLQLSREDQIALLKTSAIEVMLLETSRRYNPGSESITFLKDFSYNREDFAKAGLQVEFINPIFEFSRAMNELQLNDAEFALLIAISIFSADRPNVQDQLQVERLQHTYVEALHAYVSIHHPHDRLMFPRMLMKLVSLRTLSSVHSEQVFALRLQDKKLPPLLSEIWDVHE
Method: as §1

[2] = system: FXR target genes SHP, OSTα, BSEP in HepG2 cells; test: RT-PCR of FXR target genes in HepG2 cells; assay type: cell-based, human; conditions: 1 μM, 18 h, versus 6-ECDCA 1 μM
Method: HepG2 cells were plated at 1 × 10^6 cells/well in a six well plate. After an overnight incubation, cells were starved and then stimulated for 18 h with compound 2 at 1 μM. Total RNA was isolated from HepG2 cells or liver tissues using the TRIzol reagent according to the manufacturer’s specifications (Invitrogen). One microgram of purified RNA was treated with DNase-I and reverse transcribed with Superscript II (Invitrogen). For Real Time PCR, 10 ng template was dissolved in 25 μL containing 200 nmol/L of each primer and 12.5 μL of 2× SYBR FAST Universal ready mix (Invitrogen). All reactions were performed in triplicate, and the thermal cycling conditions were as follows: 2 min at 95°C, followed by 40 cycles of 95°C for 20 s and 60°C for 30 s in StepOnePlus (Applied Biosystems). The relative mRNA expression was calculated accordingly to the Ct method. Primers were designed using the software PRIMER3^1 using published data obtained from the NCBI database. Forward and reverse primer sequences were the following: human GAPDH, […] and […]; human BSEP, […] and […]; human OSTα, […] and […]; human SHP, […] and […]; mouse NTCP, […] and […]; mouse CYP7A1, […] and […]; mouse FGF21, […] and […]; mouse GAPDH, […] and […]; mouse BSEP, […] and […]; mouse OSTα, […] and […]; mouse SHP, […] and […].

[3] = mouse, in vivo, po, 50 mg/kg

CC[C@H]1[C@@H](O)[C@@H]2[C@H](CC[C@]3(C)[C@@H]([C@H](C)CCC(=O)O)CC[C@@H]23)[C@@]2(C)CC[C@H](N=[N+]=[N-])C[C@@H]12 [compound 2, 3β-azido-6α-ethyl-7α-hydroxy-5β-cholan-24-oic acid]
PPARα transactivation (PPARα): unable in inducing
blood level of tHCA ([1]; 50 mg/kg): significantly reduced
level of tauro-deoxycholic acid (tDCA) ([1]; 50 mg/kg oral): reduction
plasmatic and gallbladder levels of tauro-cholic acid (tCA) ([1]; 50 mg/kg oral): significantly reduced
plasmatic and gallbladder levels of tauro-muricholic acid (tMu) ([1]; 50 mg/kg oral): significantly reduced
LXRα transactivation (LXRα): unable in inducing
modulation of BSEP mRNA expression [2]: more potent than 6-ECDCA
modulation of OSTα mRNA expression [2]: more potent than 6-ECDCA
modulation of SHP mRNA expression [2]: equipotent with 6-ECDCA
liver metabolism / tauro-conjugation [3]: extensive liver metabolism
